# Values quoted from earlier work as cited in patent publication US9085569B2, “1,2,4-oxadiazol derivatives, process for their preparation and use thereof as intermediates in the preparation of indolic alkaloids” (CONSIGLIO NAZIONALE DELLE RICERCHE, priority 2012, dated 2015).
# Test system: HeLa cell line (uterine cervix cancer)
# Conditions: background statement
smiles,measurement,value
N=C(N)NCCCCCNc1noc(Cc2c[nH]c3ccccc23)n1 [phidianidine B],cytotoxic activity,high cytotoxic activity
